Laboratory results from patent US9624209B2, “Substituted phenylureas and phenylamides as vanilloid receptor ligands” (Gruenenthal GmbH, priority 2009, dated 2017).

Each molecule was assayed against T1, vanilloid receptor 1 (VR1/TRPV1 receptor) (Homo sapiens, UniProt Q8NER1) (assay: VR1/TRPV1 receptor affinity, capsaicin stimulus (human)). Settings: @ 5 μM, Tables 8-12, read-out: (f) Ki (human being) [nM] Cap: inhibition (as a percentage).
T1 construct: expressed in transfected cells; host or cells: CHO K1 cells (ECACC), stably transfected
T1 sequence (Q8NER1 whole entry): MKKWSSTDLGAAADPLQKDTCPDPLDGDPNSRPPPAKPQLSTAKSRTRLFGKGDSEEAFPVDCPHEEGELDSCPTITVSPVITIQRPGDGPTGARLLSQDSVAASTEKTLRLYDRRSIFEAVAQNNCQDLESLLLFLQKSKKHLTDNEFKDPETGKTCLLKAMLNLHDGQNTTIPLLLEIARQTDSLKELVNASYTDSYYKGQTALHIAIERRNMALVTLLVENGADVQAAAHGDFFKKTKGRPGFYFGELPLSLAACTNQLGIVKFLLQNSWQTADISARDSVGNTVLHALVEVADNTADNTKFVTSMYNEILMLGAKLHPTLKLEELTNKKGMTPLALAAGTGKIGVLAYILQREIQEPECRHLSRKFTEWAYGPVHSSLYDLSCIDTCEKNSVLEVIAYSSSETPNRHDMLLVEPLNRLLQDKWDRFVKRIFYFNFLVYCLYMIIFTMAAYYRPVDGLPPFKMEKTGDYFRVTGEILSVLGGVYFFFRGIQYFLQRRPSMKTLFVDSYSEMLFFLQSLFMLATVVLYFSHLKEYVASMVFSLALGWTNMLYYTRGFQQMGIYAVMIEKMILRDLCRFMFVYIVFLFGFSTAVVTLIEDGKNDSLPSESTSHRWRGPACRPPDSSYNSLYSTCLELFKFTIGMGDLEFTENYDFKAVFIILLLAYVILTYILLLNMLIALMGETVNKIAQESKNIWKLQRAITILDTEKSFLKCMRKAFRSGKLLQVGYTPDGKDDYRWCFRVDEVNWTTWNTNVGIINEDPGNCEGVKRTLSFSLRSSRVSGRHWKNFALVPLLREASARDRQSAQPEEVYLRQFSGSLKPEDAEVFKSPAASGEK
Assay type: cell-based, human being
For CN(C)Cc1ccc(NC(=O)NCc2cc(C(F)(F)F)nn2-c2cccc(Cl)c2)cc1F [Example B38, 1-[[2-(3-Chlorophenyl)-5-(trifluoromethyl)-2H-pyrazol-3-yl]-methyl]-3-[4-(dimethylaminomethyl)-3-fluoro-phenyl]-urea], the inhibition at 5 µM was 18%.
Work on NCc1ccc(NC(=O)NCc2cc(C(F)(F)F)nn2-c2cccc(Cl)c2)cc1F [Example B39, 1-[4-(Aminomethyl)-3-fluoro-phenyl]-3-[[2-(3-chlorophenyl)-5-(trifluoromethyl)-2H-pyrazol-3-yl]-methyl]-urea] yielded an inhibition at 5 µM of 37%.

Same assay, conditions: Tables 8-12, read-out: (f) Ki (human being) [nM] Cap
Molecule CS(=O)(=O)NCc1ccc(CC(=O)NCc2cc(C(F)(F)F)nn2-c2cccc(Cl)c2)cc1F [Example B23, N-[[2-(3-Chlorophenyl)-5-(trifluoromethyl)-2H-pyrazol-3-yl]-methyl]-2-[3-fluoro-4-(methanesulfonamido-methyl)-phenyl]-acetamide] has a Ki of 13 nM.
Molecule CCNCc1ccc(NC(=O)NCc2cc(C(F)(F)F)nn2-c2cccc(Cl)c2)cc1F [Example B24, 1-[[2-(3-Chlorophenyl)-5-(trifluoromethyl)-2H-pyrazol-3-yl]-methyl]-3-[4-(ethylamino-methyl)-3-fluoro-phenyl]-urea] has a Ki of 55 nM.
Molecule CCNCc1ccc(NC(=O)NCc2cc(C(C)(C)C)nn2-c2cccc(Cl)c2)cc1F [Example B25, 1-[[5-tert-Butyl-2-(3-chlorophenyl)-2H-pyrazol-3-yl]-methyl]-3-[4-(ethylamino-methyl)-3-fluoro-phenyl]-urea] has a Ki of 45 nM.
Work on CC(C)(C)c1cc(CNC(=O)Cc2ccc(CNS(C)(=O)=O)c(F)c2)n(-c2cccc(Cl)c2)n1 [Example B26, N-[[5-tert-Butyl-2-(3-chlorophenyl)-2H-pyrazol-3-yl]-methyl]-2-[3-fluoro-4-(methanesulfonamido-methyl)-phenyl]-acetamide] yielded a Ki of 12 nM.
Work on CS(=O)(=O)NCc1c(F)cc(NC(=O)NCc2cc(C(F)(F)F)nn2-c2cccc(Cl)c2)cc1F [Example B27, 1-[[2-(3-Chlorophenyl)-5-(trifluoromethyl)-2H-pyrazol-3-yl]-methyl]-3-[3,5-difluoro-4-(methanesulfonamido-methyl)-phenyl]-urea] yielded a Ki of 8 nM.
With CC(C)(C)c1cc(CNC(=O)Nc2ccc(CNS(C)(=O)=O)cc2)n(-c2cccc(Cl)c2)n1 [Example B28, 1-[[5-tert-Butyl-2-(3-chlorophenyl)-2H-pyrazol-3-yl]-methyl]-3-[4-(methanesulfonamido-methyl)-phenyl]-urea] the Ki was 11 nM.
Molecule CC(C(=O)NCc1cc(C(F)(F)F)nn1-c1cccc(Cl)c1)c1ccc(CN(C)S(C)(=O)=O)c(F)c1 (centres unmarked) [Example B29, N-[[2-(3-Chlorophenyl)-5-(trifluoromethyl)-2H-pyrazol-3-yl]-methyl]-2-[3-fluoro-4-[(methyl-methylsulfonyl-amino)-methyl]-phenyl]-propionamide] has a Ki of 59 nM.
CC(C(=O)NCc1cc(C(C)(C)C)nn1-c1cccc(Cl)c1)c1ccc(CN(C)S(C)(=O)=O)c(F)c1 (centres unmarked) [Example B30, N-[[5-tert-Butyl-2-(3-chlorophenyl)-2H-pyrazol-3-yl]-methyl]-2-[3-fluoro-4-[(methyl-methylsulfonyl-amino)-methyl]-phenyl]-propionamide] gave a Ki of 39 nM.
With CC(C)(C)c1cc(CNC(=O)Nc2ccc(CNS(C)(=O)=O)c(F)c2)n(-c2cccc(Cl)c2)n1 [Example B31, 1-[[5-tert-Butyl-2-(3-chlorophenyl)-2H-pyrazol-3-yl]-methyl]-3-[3-fluoro-4-(methanesulfonamido-methyl)-phenyl]-urea] the Ki was 9 nM.
With CC(C)(C)c1cc(CNC(=O)Nc2cc(F)c(CNS(C)(=O)=O)c(F)c2)n(-c2cccc(Cl)c2)n1 [Example B32, 1-[[5-tert-Butyl-2-(3-chlorophenyl)-2H-pyrazol-3-yl]-methyl]-3-[3,5-difluoro-4-(methanesulfonamido-methyl)-phenyl]-urea] the Ki was 2 nM.
NS(=O)(=O)NCc1ccc(NC(=O)NCc2cc(C(F)(F)F)nn2-c2cccc(Cl)c2)cc1 [Example B35, 1-[[2-(3-Chlorophenyl)-5-(trifluoromethyl)-2H-pyrazol-3-yl]-methyl]-3-[4-[(sulfamoylamino)-methyl]-phenyl]-urea] gave a Ki of 9 nM.
Work on CC(C)(C)c1cc(CNC(=O)Nc2ccc(CNS(N)(=O)=O)cc2)n(-c2cccc(Cl)c2)n1 [Example B36, 1-[[5-tert-Butyl-2-(3-chlorophenyl)-2H-pyrazol-3-yl]-methyl]-3-[4-[(sulfamoylamino)-methyl]-phenyl]-urea] yielded a Ki of 6 nM.
CS(=O)(=O)NCc1ccc(CC(=O)NCc2cc(C(F)(F)F)nn2-c2cccc(F)c2)cc1F [Example B37, 2-[3-Fluoro-4-(methanesulfonamido-methyl)-phenyl]-N-[[2-(3-fluorophenyl)-5-(trifluoromethyl)-2H-pyrazol-3-yl]-methyl]-acetamide] was tested, and the Ki was 46 nM.
Molecule CC(C)(C)c1cc(CNC(=O)Nc2ccc(CN)c(F)c2)n(-c2cccc(Cl)c2)n1 [Example B40, 1-[4-(Aminomethyl)-3-fluoro-phenyl]-3-[[5-tert-butyl-2-(3-chlorophenyl)-2H-pyrazol-3-yl]-methyl]-urea] has a Ki of 92 nM.
NS(=O)(=O)NCc1ccc(NC(=O)NCc2cc(C(F)(F)F)nn2-c2cccc(Cl)c2)cc1F [Example B41, 1-[[2-(3-Chlorophenyl)-5-(trifluoromethyl)-2H-pyrazol-3-yl]methyl]-3-[3-fluoro-4-[(sulfamoylamino)-methyl]-phenyl]-urea] was tested, and the Ki was 74 nM.
With CC(C(=O)NCc1cc(C(F)(F)F)nn1-c1cccc(Cl)c1)c1ccc(CN)c(F)c1 (centres unmarked) [Example B42, 2-[4-(Aminomethyl)-3-fluoro-phenyl]-N-[[2-(3-chlorophenyl)-5-(trifluoromethyl)-2H-pyrazol-3-yl]-methyl]-propionamide] the Ki was 46 nM.
CC(C(=O)NCc1cc(C(C)(C)C)nn1-c1cccc(C(F)(F)F)c1)c1ccc(CNS(C)(=O)=O)c(F)c1 (centres unmarked) [Example B43, N-[[5-tert-Butyl-2-[3-(trifluoromethyl)phenyl]-2H-pyrazol-3-yl]-methyl]-2-[3-fluoro-4-(methanesulfonamido-methyl)-phenyl]-propionamide] gave a Ki of 1 nM.
With CS(=O)(=O)NCc1ccc(NC(=O)NCc2cc(C(F)(F)F)nn2-c2cccc(F)c2)cc1 [Example B44, 1-[[2-(3-Fluorophenyl)-5-(trifluoromethyl)-2H-pyrazol-3-yl]-methyl]-3-[4-(methanesulfonamido-methyl)-phenyl]-urea] the Ki was 44 nM.
For CC(C)(C)c1cc(CNC(=O)Nc2ccc(CNS(C)(=O)=O)cc2)n(-c2cccc(F)c2)n1 [Example B45, 1-[[5-tert-Butyl-2-(3-fluorophenyl)-2H-pyrazol-3-yl]-methyl]-3-[4-(methanesulfonamido-methyl)-phenyl]-urea], the Ki was 31 nM.
CC(C)(C)c1cc(CNC(=O)Nc2ccc(CNS(N)(=O)=O)c(F)c2)n(-c2cccc(Cl)c2)n1 [Example B46, 1-[[5-tert-Butyl-2-(3-chlorophenyl)-2H-pyrazol-3-yl]-methyl]-3-[3-fluoro-4-[(sulfamoylamino)-methyl]-phenyl]-urea] was tested, and the Ki was 9 nM.
With CS(=O)(=O)NCc1ccc(NC(=O)NCc2cc(C(F)(F)F)nn2-c2cccc(F)c2)cc1F [Example B48, 1-[3-Fluoro-4-(methanesulfonamido-methyl)-phenyl]-3-[[2-(3-fluorophenyl)-5-(trifluoromethyl)-2H-pyrazol-3-yl]-methyl]-urea] the Ki was 40 nM.
